Measured values published in patent publication US11034672B1, “Tyrosine kinase inhibitor compositions, methods of making and methods of use” (Black Diamond Therapeutics, Inc., priority 2018, dated 2021).

Key:
[1] = biological target: T1, EGFR SVD (Homo sapiens, UniProt P00533, DUP768-770); assay: Activity for inhibiting EGFR (Table A), EGFR SVD; type: cell-based; conditions: read-out: EGFR SVD, potency code (IC50)
T1 construct: expressed in transfected cells; host or cells: BaF3 (murine pro-B), retroviral pMXs-IRES-Blasticidin

[2] = biological target: T1, EGFR SVD; assay: BaF3 cell proliferation assay, EGFR SVD (Table A); type: cell-based; conditions: potency code, 3 days, CellTiterGlo, read-out: EGFR SVD (Activity for Inhibiting EGFR)
Summary of the method: (§1)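 EC50s reflect growth of IL-3-independent BaF3 lines whose proliferation depends on the introduced human receptor variant. Lines were produced by retroviral infection and one week of 10 μg/ml Blasticidin selection.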

[3] = biological target: T2, HER2 WT (Homo sapiens, UniProt P04626); assay: BaF3 cell proliferation assay, HER2 WT (Table B); type: cell-based; conditions: potency code, 3 days, CellTiterGlo, read-out: HER2 WT (Activity for Inhibiting HER2)
[4] = biological target: T3, HER2 S310F (Homo sapiens, UniProt P04626, S310F); assay: Activity for inhibiting HER2 (Table B), HER2 S310F; type: cell-based; conditions: read-out: HER2 S310F, potency code (IC50)
T3 construct: expressed in transfected cells; host or cells: BaF3 (murine pro-B)
Description: (§2) EC50 values were determined with the same application.

[5] = biological target: T4, EGFR WT (Homo sapiens, UniProt P00533); assay: Activity for inhibiting EGFR (Table A), EGFR WT; type: cell-based; conditions: read-out: EGFR WT, potency code (IC50)
[6] = biological target: T2, HER2 WT; assay: Activity for inhibiting HER2 (Table B), HER2 WT; type: cell-based
[7] = biological target: T5, HER2 YVMA (Homo sapiens, UniProt P04626, INS775YVMA); assay: BaF3 cell proliferation assay, HER2 YVMA (Table B); type: cell-based; conditions: potency code, 3 days, CellTiterGlo, read-out: HER2 YVMA (Activity for Inhibiting HER2)
T5 construct: expressed in transfected cells; host or cells: BaF3 (murine pro-B)

[8] = biological target: T6, EGFR NPH (Homo sapiens, UniProt P00533, DUP771-773); assay: Activity for inhibiting EGFR (Table A), EGFR NPH; type: cell-based; conditions: read-out: EGFR NPH, potency code (IC50)
T6 construct: expressed in transfected cells; host or cells: BaF3 (murine pro-B), retroviral pMXs-IRES-Blasticidin

[9] = biological target: T4, EGFR WT; assay: BaF3 cell proliferation assay, EGFR WT (Table A); type: cell-based; conditions: potency code, 3 days, CellTiterGlo, read-out: EGFR WT (Activity for Inhibiting EGFR)
Summary of the method: as §1

[10] = biological target: T7, EGFR V3 (Homo sapiens, UniProt P00533, DELINS30-297G); assay: Activity for inhibiting EGFR (Table A), EGFR V3 (EGFR-Viii); type: cell-based; conditions: read-out: EGFR V3, potency code (IC50)
T7 construct: expressed in transfected cells; host or cells: BaF3 (murine pro-B), retroviral pMXs-IRES-Blasticidin

[11] = biological target: T6, EGFR NPH; assay: BaF3 cell proliferation assay, EGFR NPH (Table A); type: cell-based; conditions: potency code, 3 days, CellTiterGlo, read-out: EGFR NPH (Activity for Inhibiting EGFR)
Summary of the method: as §1

[12] = biological target: T5, HER2 YVMA; assay: Activity for inhibiting HER2 (Table B), HER2 YVMA; type: cell-based; conditions: read-out: HER2 YVMA, potency code (IC50)
Description: as §2

[13] = biological target: T7, EGFR V3; assay: BaF3 cell proliferation assay, EGFR V3 (Table A); type: cell-based; conditions: potency code, 3 days, CellTiterGlo, read-out: EGFR V3 (Activity for Inhibiting EGFR)
Summary of the method: as §1

[14] = system: Her2 S310F BaF3 tumors; assay: Tumor growth in athymic nude mice bearing Her2 S310F BaF3 tumors; type: in vivo; conditions: for Tumor response: FIG. 28
Description: Tumor size was measured for each dosing schedule, and analyzed to assess regression. […] The effect was further confirmed in the dose-dependent experiment.
A mouse tumor model containing mutant Her2 was used to test the ability of Compound No. 26 to inhibit tumor growth and induce tumor regression in vivo. Athymic nude mice from Charles River Labs bearing Her2 S310F BaF3 tumors were treated with Compound No. 26 either at 15 mg/kg once per day (QD), 7.5 mg/kg twice per day (BID), and 15 mg/kg twice per day (BID). Tumor size was measured for each dosing condition and analyzed to assess regression. […] The effect was further confirmed in mice dosed at 15 mg/kg once per day (QD), 7.5 mg/kg twice per day (BID), and 15 mg/kg twice per day (BID). In addition to assessing tumor size in these groups, plasma was collected from dosed individuals at 2 and 5 hours following each treatment. Compound No. 26 levels were measured in the plasma samples to determine pharmacokinetic profiles that may influence tumor response.
Tumor size was measured and analyzed to assess the effect on tumor growth and regression.
A mouse tumor model containing mutant Her2 was used to test the ability of Compound No. 6 to inhibit tumor growth and induce tumor regression in vivo. Athymic nude mice from Charles River Labs bearing Her2 S310F BaF3 tumors were treated with Compound No. 6 at 30 mg/kg once per day (QD) for 10 days. Tumor size was measured and analyzed to assess the effect on tumor growth and regression.

[15] = biological target: T3, HER2 S310F; assay: BaF3 cell proliferation assay, HER2 S310F (Table B); type: cell-based; conditions: potency code, 3 days, CellTiterGlo, read-out: HER2 S310F (Activity for Inhibiting HER2)
[16] = Table B, read-out: HER2 WT, potency code (IC50)
[17] = text lists of compounds, read-out: IC50 value for inhibiting wild-type HER2
[18] = 50 mg/kg once per day for 10 days

T4 sequence (P00533 25-1210 N540K): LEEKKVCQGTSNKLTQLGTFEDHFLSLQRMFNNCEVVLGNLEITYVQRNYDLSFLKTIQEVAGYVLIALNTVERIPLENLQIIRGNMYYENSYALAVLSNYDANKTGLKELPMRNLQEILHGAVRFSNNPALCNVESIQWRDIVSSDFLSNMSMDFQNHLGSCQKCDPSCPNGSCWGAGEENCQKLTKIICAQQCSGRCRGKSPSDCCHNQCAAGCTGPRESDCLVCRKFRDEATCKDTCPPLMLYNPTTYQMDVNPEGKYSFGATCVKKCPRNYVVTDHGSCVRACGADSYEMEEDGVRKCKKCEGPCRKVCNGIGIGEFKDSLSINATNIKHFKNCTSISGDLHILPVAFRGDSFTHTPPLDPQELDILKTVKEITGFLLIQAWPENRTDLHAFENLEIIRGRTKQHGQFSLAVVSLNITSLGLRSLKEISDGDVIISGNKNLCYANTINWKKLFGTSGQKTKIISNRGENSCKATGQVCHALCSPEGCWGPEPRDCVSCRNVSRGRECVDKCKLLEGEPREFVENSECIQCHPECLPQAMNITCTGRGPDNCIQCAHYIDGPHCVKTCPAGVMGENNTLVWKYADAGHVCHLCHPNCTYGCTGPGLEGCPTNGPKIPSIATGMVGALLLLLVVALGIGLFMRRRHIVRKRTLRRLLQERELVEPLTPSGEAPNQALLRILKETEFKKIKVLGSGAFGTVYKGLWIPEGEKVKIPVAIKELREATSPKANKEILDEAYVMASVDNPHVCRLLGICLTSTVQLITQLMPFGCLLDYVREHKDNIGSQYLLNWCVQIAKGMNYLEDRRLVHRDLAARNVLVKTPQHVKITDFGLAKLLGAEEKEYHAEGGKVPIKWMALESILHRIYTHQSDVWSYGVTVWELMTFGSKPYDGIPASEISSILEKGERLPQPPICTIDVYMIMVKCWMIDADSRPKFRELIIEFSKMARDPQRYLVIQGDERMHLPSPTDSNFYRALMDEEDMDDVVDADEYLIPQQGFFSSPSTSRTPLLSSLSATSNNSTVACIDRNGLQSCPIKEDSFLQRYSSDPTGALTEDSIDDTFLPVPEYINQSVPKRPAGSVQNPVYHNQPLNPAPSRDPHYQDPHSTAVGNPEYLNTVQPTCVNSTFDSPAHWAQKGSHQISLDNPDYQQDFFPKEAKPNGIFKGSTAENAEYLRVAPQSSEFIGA
T2 sequence (P04626 23-1255): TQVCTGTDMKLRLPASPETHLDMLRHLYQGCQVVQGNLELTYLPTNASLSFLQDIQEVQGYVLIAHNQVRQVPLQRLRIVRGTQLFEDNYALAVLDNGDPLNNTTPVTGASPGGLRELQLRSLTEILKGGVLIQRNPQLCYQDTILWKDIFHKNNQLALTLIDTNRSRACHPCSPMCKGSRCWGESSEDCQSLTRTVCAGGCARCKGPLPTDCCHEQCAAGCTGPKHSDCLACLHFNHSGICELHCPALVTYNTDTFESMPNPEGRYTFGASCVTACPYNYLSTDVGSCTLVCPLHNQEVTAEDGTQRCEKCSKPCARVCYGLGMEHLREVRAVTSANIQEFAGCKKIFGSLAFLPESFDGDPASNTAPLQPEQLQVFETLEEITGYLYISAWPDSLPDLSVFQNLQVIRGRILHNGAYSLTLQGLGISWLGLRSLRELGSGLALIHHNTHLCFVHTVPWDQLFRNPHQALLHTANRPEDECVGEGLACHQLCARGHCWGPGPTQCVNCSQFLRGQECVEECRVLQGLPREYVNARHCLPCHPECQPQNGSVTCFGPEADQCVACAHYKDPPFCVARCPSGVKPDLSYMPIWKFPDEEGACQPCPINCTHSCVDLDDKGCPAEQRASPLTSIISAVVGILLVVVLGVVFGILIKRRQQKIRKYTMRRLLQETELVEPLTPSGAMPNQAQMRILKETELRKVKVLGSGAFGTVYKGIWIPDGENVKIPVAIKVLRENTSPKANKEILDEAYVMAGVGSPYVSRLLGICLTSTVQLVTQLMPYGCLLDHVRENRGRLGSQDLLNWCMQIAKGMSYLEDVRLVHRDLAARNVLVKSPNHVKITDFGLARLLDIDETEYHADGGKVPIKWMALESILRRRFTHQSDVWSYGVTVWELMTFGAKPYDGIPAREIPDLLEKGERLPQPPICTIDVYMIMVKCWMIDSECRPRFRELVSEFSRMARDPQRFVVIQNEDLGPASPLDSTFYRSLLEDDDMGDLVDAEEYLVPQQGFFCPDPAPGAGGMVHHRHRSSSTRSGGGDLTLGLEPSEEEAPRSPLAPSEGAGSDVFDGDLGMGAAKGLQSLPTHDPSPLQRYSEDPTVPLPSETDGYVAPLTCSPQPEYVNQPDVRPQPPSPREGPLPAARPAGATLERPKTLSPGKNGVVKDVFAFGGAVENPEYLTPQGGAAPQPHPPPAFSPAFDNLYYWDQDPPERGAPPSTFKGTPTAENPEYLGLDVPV
T6 sequence (P00533 with tags, fused parts or gaps DUP771-773): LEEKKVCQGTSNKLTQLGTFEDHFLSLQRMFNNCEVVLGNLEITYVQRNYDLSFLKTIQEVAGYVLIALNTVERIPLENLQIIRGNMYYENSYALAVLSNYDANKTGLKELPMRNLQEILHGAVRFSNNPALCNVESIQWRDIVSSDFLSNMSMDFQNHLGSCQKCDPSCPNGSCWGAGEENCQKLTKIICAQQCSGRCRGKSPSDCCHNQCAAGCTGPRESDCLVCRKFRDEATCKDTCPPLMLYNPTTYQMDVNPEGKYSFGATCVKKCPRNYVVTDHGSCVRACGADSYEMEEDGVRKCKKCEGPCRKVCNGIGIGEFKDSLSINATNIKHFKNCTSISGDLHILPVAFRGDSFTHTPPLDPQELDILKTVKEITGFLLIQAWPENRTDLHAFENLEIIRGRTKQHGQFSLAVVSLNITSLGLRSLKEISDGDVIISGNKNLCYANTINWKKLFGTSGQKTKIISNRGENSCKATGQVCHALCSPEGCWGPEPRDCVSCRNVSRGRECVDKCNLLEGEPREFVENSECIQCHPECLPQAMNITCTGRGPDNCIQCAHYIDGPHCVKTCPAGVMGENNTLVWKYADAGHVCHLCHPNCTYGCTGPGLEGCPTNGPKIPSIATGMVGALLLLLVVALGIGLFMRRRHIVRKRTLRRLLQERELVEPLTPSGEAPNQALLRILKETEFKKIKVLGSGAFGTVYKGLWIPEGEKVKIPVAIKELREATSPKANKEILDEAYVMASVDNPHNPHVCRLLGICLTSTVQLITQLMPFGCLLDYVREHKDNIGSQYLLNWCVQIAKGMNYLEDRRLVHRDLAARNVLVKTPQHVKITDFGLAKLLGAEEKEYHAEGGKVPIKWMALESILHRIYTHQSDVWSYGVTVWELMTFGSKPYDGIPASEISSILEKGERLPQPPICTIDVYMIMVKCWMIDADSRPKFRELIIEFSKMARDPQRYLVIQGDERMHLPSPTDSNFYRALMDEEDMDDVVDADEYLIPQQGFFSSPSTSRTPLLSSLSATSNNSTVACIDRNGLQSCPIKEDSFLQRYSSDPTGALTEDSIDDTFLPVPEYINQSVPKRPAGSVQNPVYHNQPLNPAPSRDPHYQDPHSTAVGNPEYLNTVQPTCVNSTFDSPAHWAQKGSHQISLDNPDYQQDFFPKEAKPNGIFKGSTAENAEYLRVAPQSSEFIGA
T7 sequence (P00533 with tags, fused parts or gaps DELINS30-297G): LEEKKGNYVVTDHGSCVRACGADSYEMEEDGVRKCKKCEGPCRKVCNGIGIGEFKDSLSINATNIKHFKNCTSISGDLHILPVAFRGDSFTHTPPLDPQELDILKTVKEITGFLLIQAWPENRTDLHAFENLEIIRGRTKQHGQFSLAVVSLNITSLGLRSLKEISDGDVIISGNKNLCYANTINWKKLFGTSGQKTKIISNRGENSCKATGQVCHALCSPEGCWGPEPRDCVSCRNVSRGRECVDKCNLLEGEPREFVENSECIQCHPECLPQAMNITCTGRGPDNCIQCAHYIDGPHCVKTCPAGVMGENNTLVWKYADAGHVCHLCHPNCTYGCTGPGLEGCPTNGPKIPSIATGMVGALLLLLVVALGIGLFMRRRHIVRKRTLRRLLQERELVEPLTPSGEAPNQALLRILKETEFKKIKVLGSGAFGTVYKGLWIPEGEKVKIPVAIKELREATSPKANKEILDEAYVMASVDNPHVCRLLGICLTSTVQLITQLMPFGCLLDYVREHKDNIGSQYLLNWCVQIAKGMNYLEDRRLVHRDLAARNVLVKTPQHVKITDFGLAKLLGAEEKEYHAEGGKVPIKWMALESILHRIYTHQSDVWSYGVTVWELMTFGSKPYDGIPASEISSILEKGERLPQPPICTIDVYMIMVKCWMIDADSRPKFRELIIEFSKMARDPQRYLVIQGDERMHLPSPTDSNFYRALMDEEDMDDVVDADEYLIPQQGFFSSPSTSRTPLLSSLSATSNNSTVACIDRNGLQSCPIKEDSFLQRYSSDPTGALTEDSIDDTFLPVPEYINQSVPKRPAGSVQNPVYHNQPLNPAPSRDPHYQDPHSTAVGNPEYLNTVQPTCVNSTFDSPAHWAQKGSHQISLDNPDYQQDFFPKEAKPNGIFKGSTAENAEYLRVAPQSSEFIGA

Structure (SMILES) | IC50 [1] [µM] | IC50 [2] [µM] | IC50 [3] [µM] | IC50 [4] [µM] | IC50 [5] [µM] | IC50 [6, 16] [µM] | IC50 [6, 17] [µM] | IC50 [7] [µM] | IC50 [8] [µM] | IC50 [9] [µM] | IC50 [10] [µM] | IC50 [11] [µM] | IC50 [12] [µM] | IC50 [13] [µM] | IC50 [15] [µM] | Tumor volume [14, 18] | further results
C=CC(=O)Nc1cc2c(Nc3ccc(OCc4ccccn4)c(Cl)c3)ncnc2cc1OCCN1CCOCC1 [compound 8] | 0.02 to 0.03 | 0.02 to 0.03 | 0.005 to 0.01 | 0.01 to 0.02 | 0.3 to 0.5 | 0.005 to 0.01 | ≤ 0.01 | 0.05 to 0.1 | 0.03 to 0.05 | 0.3 to 0.5 | 0.02 to 0.03 | 0.03 to 0.05 | 0.05 to 0.1 | 0.02 to 0.03 | 0.01 to 0.02 | decreased | Tumor regression, dose-dependent experiment ([14]; 15 mg/kg to 100 mg/kg once per day (QD) for 10 days, FIG. 26 right panel): regressed in a Compound No. 8 dose-dependent manner
C=CC(=O)Nc1cc2c(Nc3cc(Cl)c(OCc4cccc(F)c4)cc3F)ncnc2cc1OCCN1CCOCC1 [compound 6] | – | – | 0.005 to 0.01 | 0.01 to 0.02 | 0.2 to 0.3 | 0.005 to 0.01 | ≤ 0.01 | 0.05 to 0.1 | – | 0.2 to 0.3 | 0.02 to 0.03 | – | 0.05 to 0.1 | 0.02 to 0.03 | 0.01 to 0.02 | – | Tumor volume ([14]; 30 mg/kg once per day (QD) for 10 days, FIG. 30): decreased

Continued, in another order:

IC50 [1] [µM] | IC50 [2] [µM] | IC50 [3] [µM] | IC50 [4] [µM] | IC50 [5] [µM] | IC50 [6, 16] [µM] | IC50 [6, 17] [µM] | IC50 [7] [µM] | IC50 [8] [µM] | IC50 [9] [µM] | IC50 [10] [µM] | IC50 [11] [µM] | IC50 [12] [µM] | IC50 [13] [µM] | IC50 [15] [µM] | Structure (SMILES) | Tumor volume [14, 18] | further results
0.03 to 0.05 | 0.03 to 0.05 | 0.005 to 0.01 | 0.005 to 0.01 | 0.3 to 0.5 | 0.005 to 0.01 | ≤ 0.01 | 0.03 to 0.05 | 0.03 to 0.05 | 0.3 to 0.5 | 0.03 to 0.05 | 0.03 to 0.05 | 0.03 to 0.05 | 0.03 to 0.05 | 0.005 to 0.01 | C=CC(=O)Nc1cc2c(Nc3ccc(OCc4ccccn4)c(Cl)c3)ncnc2cc1C#C[C@@H]1[C@H]2CN(C)C[C@@H]12 [compound 26] | – | Tumor response ([14]; 7.5 mg/kg twice per day (BID)): definite tumor growth inhibition properties; Tumor response ([14]; 15 mg/kg BID): definite tumor regressive properties; Tumor volume over the time course ([14]; 15 mg/kg QD, 7.5 mg/kg BID, 15 mg/kg BID, FIG. 27): did not increase; Tumor response ([14]; 15 mg/kg once per day (QD)): definite tumor growth inhibition properties
0.01 to 0.02 | 0.01 to 0.02 | < 0.005 | 0.005 to 0.01 | 0.5 to 1 | < 0.005 | ≤ 0.01 | 0.02 to 0.03 | 0.01 to 0.02 | 0.5 to 1 | 0.02 to 0.03 | 0.01 to 0.02 | 0.02 to 0.03 | 0.02 to 0.03 | 0.005 to 0.01 | C=CC(=O)Nc1cc2c(Nc3ccc(OCc4ccccn4)c(Cl)c3)ncnc2cc1OCCCN1CCOCC1 [compound 21] | did not increase over the same timeframe and showed moderate reduction in volume | –
0.01 to 0.02 | 0.01 to 0.02 | < 0.005 | < 0.005 | 0.03 to 0.05 | < 0.005 | ≤ 0.005 | 0.005 to 0.01 | 0.03 to 0.05 | 0.03 to 0.05 | 0.01 to 0.02 | 0.03 to 0.05 | 0.005 to 0.01 | 0.01 to 0.02 | < 0.005 | CC#CC(=O)Nc1cc2c(Nc3ccc(OCc4ccccn4)c(Cl)c3)ncnc2cc1OCCN1CCOCC1 [compound 5] | – | –
